According to the supplement of paper PMC10307832:

How the values were obtained:
Test in all cases: relative viability (nuclei count vs DMSO), 5 days (fraction); higher = more cells survive
Mirin + Pictilisib = compound: N=C1NC(=O)/C(=C/c2ccc(O)cc2)S1 [Mirin] + CS(=O)(=O)N1CCN(Cc2cc3nc(-c4cccc5[nH]ncc45)nc(N4CCOCC4)c3s2)CC1 [Pictilisib] (partner 1 µM)
In short: (§1)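 A single step with final 0.05% Triton X-100, 1% formaldehyde and 1 ug/ml Hoechst fixed the cells and stained nuclei 5 days after treatment. Lung cancer cell lines in 1536-well plates had been treated by pin tool the day after seeding with one drug alone or a fixed anchor-drug dose plus five library-drug doses (not always all listed) in √10 steps, and nuclei were counted on 4× images. Relative viability is the ratio of nuclei in treated wells to nuclei in vehicle wells, taken as the median of duplicate plates.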

Mirin + Foretinib = compound: N=C1NC(=O)/C(=C/c2ccc(O)cc2)S1 [Mirin] + COc1cc2c(Oc3ccc(NC(=O)C4(C(=O)Nc5ccc(F)cc5)CC4)cc3F)ccnc2cc1OCCCN1CCOCC1 [Foretinib] (partner 0.25 µM)
In short: as §1

Mirin + Palbociclib = compound: N=C1NC(=O)/C(=C/c2ccc(O)cc2)S1 [Mirin] + CC(=O)c1c(C)c2cnc(Nc3ccc(N4CCNCC4)cn3)nc2n(C2CCCC2)c1=O [Palbociclib] (partner 0.5 µM)
In short: as §1

[1] = compound: CCn1c(-c2nonc2N)nc2cnc(Oc3cccc(NC(=O)c4ccc(OCCN5CCOCC5)cc4)c3)cc21 + COc1cccc2cc(-c3nc([C@H]4CC[C@H](C(=O)O)CC4)n4ncnc(N)c34)[nH]c12 [OSI-027] (partner 0.5 µM)
In short: as §1

| Cell Line | relative viability (Mirin + Pictilisib; first compound 0.25 µM) | relative viability (Mirin + Pictilisib; first compound 0.7906 µM) | relative viability (Mirin + Pictilisib; first compound 2.5 µM) | relative viability (Mirin + Pictilisib; first compound 7.906 µM) | relative viability (Mirin + Pictilisib; first compound 25 µM) | relative viability (Mirin + Foretinib; first compound 0.25 µM) | relative viability (Mirin + Foretinib; first compound 0.7906 µM) | relative viability (Mirin + Foretinib; first compound 2.5 µM) | relative viability (Mirin + Foretinib; first compound 7.906 µM) | relative viability (Mirin + Foretinib; first compound 25 µM) | relative viability (Mirin + Palbociclib; first compound 0.25 µM) | relative viability (Mirin + Palbociclib; first compound 0.7906 µM) | relative viability (Mirin + Palbociclib; first compound 2.5 µM) | relative viability (Mirin + Palbociclib; first compound 7.906 µM) | relative viability (Mirin + Palbociclib; first compound 25 µM) | relative viability ([1]; first compound 0.04 µM) | relative viability ([1]; first compound 0.1265 µM) | relative viability ([1]; first compound 0.4 µM) | relative viability ([1]; first compound 1.265 µM) | relative viability ([1]; first compound 4 µM) |
| --- | --- | --- | --- | --- | --- | --- | --- | --- | --- | --- | --- | --- | --- | --- | --- | --- | --- | --- | --- | --- |
| 201T | 0.704 | 0.668 | 0.614 | 0.753 | 0.67 | 1.1 | 1.24 | 1.17 | 1.06 | 1.17 | 0.365 | 0.413 | 0.353 | 0.348 | 0.395 | 0.857 | 0.773 | 0.38 | 0.674 | 0.806 |
| A549 | 0.541 | 0.512 | 0.55 | 0.403 | 0.321 | 0.89 | 1.02 | 0.902 | 0.956 | 1.04 |  |  |  |  |  |  |  |  |  |  |
| A-427 | 0.749 |  | 0.821 | 0.603 | 0.783 | 1.06 |  | 1.07 | 1.05 | 0.607 | 0.494 | 0.5 | 0.552 | 0.516 | 0.504 | 0.585 | 0.545 | 0.328 | 0.411 | 0.352 |
| ABC-1 | 0.923 | 0.501 | 0.753 | 0.695 | 0.302 | 1.35 | 1.08 | 0.971 | 1.03 | 0.587 | 0.548 | 0.693 | 0.573 | 0.728 | 0.482 | 0.492 | 0.751 | 0.272 | 0.418 | 0.3 |
| BEN | 0.484 | 0.656 | 0.619 | 0.416 | 0.312 | 0.567 | 0.654 | 0.68 | 0.552 | 0.386 | 0.485 | 0.468 | 0.423 | 0.424 | 0.426 | 0.27 | 0.267 | 0.243 | 0.266 | 0.24 |
| CAL-12T | 0.535 |  | 0.561 |  | 0.368 | 1.16 |  | 1.12 | 1.04 | 1.31 | 0.265 | 0.193 | 0.508 | 0.408 | 0.339 | 0.857 | 0.826 | 0.43 | 0.603 | 0.469 |
| COR-L23 | 0.8 | 0.721 | 0.854 | 0.738 | 0.687 | 1.07 | 1.14 | 0.879 | 1.01 | 1.05 | 0.369 | 0.299 | 0.245 | 0.268 | 0.341 | 0.686 | 0.54 | 0.326 | 0.207 | 0.144 |
| COR-L 105 | 0.407 | 0.263 | 0.397 | 0.373 | 0.326 | 1.06 | 0.865 | 1.25 | 1.17 | 0.781 | 0.426 | 0.415 | 0.376 | 0.432 | 0.42 | 0.976 | 0.654 | 0.361 | 0.374 | 0.26 |
| Calu-6 | 0.997 | 0.934 | 0.862 | 0.761 | 0.597 | 0.902 | 1.03 | 0.918 | 0.903 | 0.865 |  |  |  |  |  |  |  |  |  |  |
| ChaGo-K-1 | 0.667 |  | 0.713 | 0.571 | 0.693 | 0.963 | 0.921 | 0.965 | 0.841 | 0.652 | 0.915 | 0.961 | 0.973 | 0.919 | 0.68 | 0.679 | 0.521 | 0.313 | 0.393 | 0.307 |
| EBC-1 | 0.456 | 0.343 | 0.378 | 0.238 | 0.204 | 0.103 | 0.116 | 0.102 | 0.102 | 0.0881 |  |  |  |  |  |  |  |  |  |  |
| EKVX | 0.39 | 0.422 | 0.396 | 0.394 | 0.378 | 0.757 | 0.73 | 0.848 | 0.735 | 0.932 | 0.367 | 0.376 | 0.302 | 0.365 | 0.412 | 0.839 | 0.77 | 0.613 | 0.65 | 0.545 |
| EMC-BAC-2 | 0.56 | 0.546 | 0.532 | 0.508 | 0.52 | 0.976 | 0.998 | 1.07 | 1.06 | 1.09 | 0.485 | 0.515 | 0.52 | 0.4 | 0.502 | 0.364 | 0.287 | 0.161 | 0.18 | 0.2 |
| EPLC-272H | 0.35 |  | 0.284 | 0.311 | 0.258 | 0.744 |  | 0.602 | 0.519 | 0.306 | 0.283 |  | 0.339 | 0.345 | 0.353 | 0.363 | 0.339 | 0.246 | 0.234 | 0.247 |
| H3255 | 0.516 | 0.444 | 0.493 | 0.306 | 0.564 | 1.11 | 0.825 | 0.929 | 0.676 | 0.998 | 0.308 | 0.309 | 0.298 | 0.323 | 0.328 | 0.831 | 0.713 | 0.603 | 0.506 | 0.638 |
| HARA | 0.367 | 0.353 | 0.437 | 0.335 | 0.169 | 0.817 |  | 0.845 | 0.902 | 0.708 | 0.273 | 0.277 | 0.265 | 0.293 | 0.268 | 0.533 | 0.38 | 0.141 | 0.148 | 0.102 |
| HCC-15 | 0.789 | 0.411 | 0.665 | 0.551 | 0.517 | 1.1 | 1 | 1.06 | 0.819 | 0.882 | 0.739 | 0.712 | 0.677 | 0.674 | 0.737 | 0.806 | 0.617 | 0.324 |  | 0.536 |
| HCC-44 | 0.7 | 0.819 | 0.602 | 0.541 | 0.474 |  |  |  |  |  | 1 | 1.1 | 0.91 | 0.975 | 1.15 | 0.533 | 0.423 | 0.175 | 0.111 | 0.225 |
